Results on two substances are retold here after patent US8470765B2, “Polypeptides and antibacterial or antiseptic use of same” (AnGes MG, Inc., priority 2009, dated 2013).

Test [1] relates to Escherichia coli ATCC 25922. Kind of test: microbe, parasite or virus in culture. The class given is cell-based. The conditions noted are these: Table 4; two tests, first/second value where not identical. The method in brief:
(§1)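 Broth microdilution in Mueller-Hinton broth with about 10^5 CFU/mL final inoculum, prepared from log-phase cultures adjusted to McFarland 0.5. Peptides were diluted in MHB from 128 μg/mL and incubated with cells at 37° C for 16 to 24 hours. MIC was the lowest concentration with no visible growth.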

The test system of test [2] is Klebsiella pneumoniae JCM 1662. Kind of test: microbe, parasite or virus in culture. Type of test: cell-based. The method in brief: as §1
In test [3] the test system is Pseudomonas aeruginosa 1 (clinical strain). The experiment in a line: microbe, parasite or virus in culture. The conditions noted are these: Table 4; clinical strain; first/second value where not identical. The protocol: (§2) Bacteria (Escherichia coli ATCC 25922, Pseudomonas aeruginosa ATCC 27853, Staphylococcus aureus ATCC29213, Klebsiella pneumoniae JCM 1662, Enterobacter cloacae JCM 1232, Enterobacter aerogenes JCM 1235 and Staphylococcus epidermidis JCM 2414) were inoculated to Mueller-Hinton broth: MHB or LB medium, and cultured at a temperature and period suited for each strain. From the thus obtained colonies, each strain was inoculated to a fresh liquid medium and cultured for 16 to 20 hours. Then an aliquot having a volume (10 to 50 appropriate to each strain was inoculated to a fresh liquid medium and cultured for 4 to 6 hours, followed by the measurement of the absorbance at 600 nm. After comparing the turbidity with McFarland #0.5, the resultant was diluted with a medium. Each strain was added to about 10^5 CFU/mL (final concentration).
(§3) Further, the antibacterial activities against the clinical strains collected and isolated from infected patients were also examined. The tests were carried out for two methicillin-resistant Staphylococcus (MRSA) (MRSA (i) and (ii)), two methicillin-sensitive Staphylococcus (MSSA) (MSSA (i) and (ii)), five Pseudomonas aeruginosa, Pseudomonas aeruginosa 1, Pseudomonas aeruginosa 6, Pseudomonas aeruginosa 8. Pseudomonas aeruginosa 9 and Pseudomonas aeruginosa 12, totally 9 clinical strains. The MRSA and MSSA clinical strains were tested by the same method as Staphylococcus aureus ATCC29213, and Pseudomonas clinical strains were tested by the same method as Pseudomonas aeruginosa ATCC 27853.
(§4) Each of the peptide solutions to be tested was diluted with MHB to obtain a solution of 128 μg/mL. This solution was serially diluted with the medium to prepare peptide-containing media having concentrations of 128, 64, 32, 16, 8.0, 4.0 and 2.0 μg/mL respectively. […] By dilution with sterilized purified water to 1.0 mg/mL, positive control-containing media having concentrations of 16, 8, 4, 2, 1.0, 0.25, 0.12 and 0.06 μg/mL, respectively for TOB; 0.5, 0.12 and 0.06 μg/mL, respectively, for OX; and 16, 8, 4, 2, 1.0, 0.25, 0.12, 0.06, 0.06, 0.03 and 0.008 μg/mL, respectively, for MEPM, were prepared.
(§5) To a 96-well microtiter plate, 0.1 mL of the inoculation solution and 0.1 mL of the peptide- or positive control-containing medium having the respective concentration were added, and cultured at 37° C. for 16 to 24 hours (or a time period suited for the growth of the respective strain). The well not containing the sample was used as a negative control. After the culturing, the growth was visually observed, and the minimum concentration at which the growth was inhibited was defined as the minimum growth inhibition concentration (MIC).
(§6) The medium used in this test for bacteria was Mueller-Hinton broth. Independent experiments were carried out twice or more for each strain.

Test [4] deals with Pseudomonas aeruginosa 12 (clinical strain). The experiment in a line: microbe, parasite or virus in culture. The settings on record: Table 4; clinical strain; first/second value where not identical. The protocol:
as §2, §3, §4, §5, §6

Test [5] has as its system Pseudomonas aeruginosa 6 (clinical strain). The experiment in a line: microbe, parasite or virus in culture. On the procedure: as §2, §3, §4, §5, §6
Test [6] deals with Pseudomonas aeruginosa 9 (clinical strain). Kind of test: microbe, parasite or virus in culture. On the procedure:
as §2, §3, §4, §5, §6

Test [7] deals with Pseudomonas aeruginosa 8 (clinical strain). On the procedure:
as §2, §3, §4, §5, §6

For test [8], the system named is methicillin-resistant Staphylococcus (MRSA) MRSA(i). The experiment in a line: organism not typed. The settings on record: methicillin-resistant Staphylococcus (i). On the procedure:
as §2, §3, §4, §5, §6

For test [9], the system named is methicillin-resistant Staphylococcus (MRSA) MRSA(ii). The experiment in a line: organism not typed. The settings on record: methicillin-resistant Staphylococcus (ii). The protocol: as §2, §3, §4, §5, §6
The subject of test [10] is methicillin-sensitive Staphylococcus (MSSA) MSSA(i). The experiment in a line: organism not typed. The conditions noted are these: Table 4; clinical strain; first/second value where not identical. On the procedure: as §2, §3, §4, §5, §6
The test system of test [11] is methicillin-sensitive Staphylococcus (MSSA) MSSA(ii). The experiment in a line: organism not typed. The conditions noted are these: methicillin-sensitive Staphylococcus (ii). The protocol:
as §2, §3, §4, §5, §6

Test [12] has as its system Micrococcus luteus NBRC13867.
Test [13] deals with Salmonella typhimurium JCM1652. The settings on record: JCM1652.
Test [14] relates to Bacteroides fragilis JCM 11019. The conditions noted are these: JCM 11019.
The test system of test [15] is Fusobacterium nucleatum JCM 11025.
The subject of test [16] is Trichophyton mentagrophytes NBRC6124. The conditions noted are these: NBRC6124.
[17] abbreviates: Table 4, two tests, first/second value where not identical.
Where [18] appears, read: Table 4, clinical strain, first/second value where not identical.

Like-named read-outs stand apart in the source and are kept apart here. No end group written: not given here.

As for KLIFLRELRRLRKRLKRKLR-NH2 [SRP-16], in test [1], the “MIC Escherichia coli” value is 16/32. Besides, the MIC Klebsiella pneumoniae in test [2] (JCM 1662) worked out at 64 µg/mL. In addition, the “MIC Pseudomonas aeruginosa 1” value in test [3] is 16/32. Besides, in test [4], the “MIC Pseudomonas aeruginosa 12” value is given as 8/16. The MIC Pseudomonas aeruginosa 6 in test [5] (6 (clinical strain)) came out at 16 µg/mL. Besides, the MIC Pseudomonas aeruginosa 9 in [6] (9 (clinical strain)) came to 64 µg/mL. This substance displayed an MIC Pseudomonas aeruginosa 8 in test [7] (8 (clinical strain)) of 16 µg/mL. This substance displayed an MIC MRSA(i) in [8] of 32 µg/mL. For the same substance, the MIC MRSA(ii) in test [9] was 64 µg/mL. Further, in [10], the “MIC MSSA(i)” value is reported as 16/32. Moreover, in test [11], the MIC MSSA(ii) was determined as 16 µg/mL. For the same substance, in test [12], the MIC Micrococcus luteus was 2 µg/mL. Further, the MIC Salmonella Typhimurium in test [13] is 8 µg/mL. Moreover, the MIC Bacteroides fragilis in [14] came to 32 µg/mL. The substance also yielded an MIC Fusobacterium nucleatum in test [15] (JCM 11025) of 128 µg/mL. Besides, in [16], the MIC Trichophyton mentagrophytes is 32 µg/mL.
With “KNLRRIIRKIIHIIKKYG-NH2 [Ovispirin-1, reference compound]”, the “MIC Escherichia coli” value in test [1] is 8/16. Besides, the “MIC Klebsiella pneumoniae” value in test [2] (setting [17]) is 8/16. For the same substance, the “MIC Pseudomonas aeruginosa 1” value in test [3] is 16/64. In test [4], the “MIC Pseudomonas aeruginosa 12” value is recorded as 16/32. The “MIC Pseudomonas aeruginosa 6” value in [5] (setting [18]) is recorded as 32/64. In addition, the “MIC Pseudomonas aeruginosa 9” value in test [6] (setting [18]) is recorded as 32/128. For the same substance, the “MIC Pseudomonas aeruginosa 8” value in [7] (setting [18]) is recorded as 32/64. The MIC MRSA(i) in test [8] stood at 32 µg/mL. The substance also had an MIC MRSA(ii) in test [9] of 32 µg/mL. The “MIC MSSA(i)” value in test [10] is given as 16/32. In test [11], this substance had an MIC MSSA(ii) of 16 µg/mL. Moreover, the MIC Micrococcus luteus in test [12] stood at 2 µg/mL. In addition, the MIC Salmonella Typhimurium in test [13] came to 16 µg/mL. In test [14], this substance gave an MIC Bacteroides fragilis of 1 µg/mL. Further, the “MIC Fusobacterium nucleatum” value in [15] (setting [17]) was 2/4. This substance returned an MIC Trichophyton mentagrophytes in test [16] of 32 µg/mL.
